Results from US9458095B2, “Oligo-benzamide compounds and their use in treating cancers” (The Board of Regents of the University of Texas System, priority 2011, dated 2016).

Columns and labels:
AR567 = target: T1, AR567 (Homo sapiens, UniProt P10275); experiment: ARE-luciferase reporter in PC-3 cells expressing AR567; assay type: cell-based; settings: 100 nM peptidomimetic, 48 h
T1 construct: expressed in transfected cells; host or cells: PC-3 cells
T1 sequence (P10275 with tags, fused parts or gaps limits assumed): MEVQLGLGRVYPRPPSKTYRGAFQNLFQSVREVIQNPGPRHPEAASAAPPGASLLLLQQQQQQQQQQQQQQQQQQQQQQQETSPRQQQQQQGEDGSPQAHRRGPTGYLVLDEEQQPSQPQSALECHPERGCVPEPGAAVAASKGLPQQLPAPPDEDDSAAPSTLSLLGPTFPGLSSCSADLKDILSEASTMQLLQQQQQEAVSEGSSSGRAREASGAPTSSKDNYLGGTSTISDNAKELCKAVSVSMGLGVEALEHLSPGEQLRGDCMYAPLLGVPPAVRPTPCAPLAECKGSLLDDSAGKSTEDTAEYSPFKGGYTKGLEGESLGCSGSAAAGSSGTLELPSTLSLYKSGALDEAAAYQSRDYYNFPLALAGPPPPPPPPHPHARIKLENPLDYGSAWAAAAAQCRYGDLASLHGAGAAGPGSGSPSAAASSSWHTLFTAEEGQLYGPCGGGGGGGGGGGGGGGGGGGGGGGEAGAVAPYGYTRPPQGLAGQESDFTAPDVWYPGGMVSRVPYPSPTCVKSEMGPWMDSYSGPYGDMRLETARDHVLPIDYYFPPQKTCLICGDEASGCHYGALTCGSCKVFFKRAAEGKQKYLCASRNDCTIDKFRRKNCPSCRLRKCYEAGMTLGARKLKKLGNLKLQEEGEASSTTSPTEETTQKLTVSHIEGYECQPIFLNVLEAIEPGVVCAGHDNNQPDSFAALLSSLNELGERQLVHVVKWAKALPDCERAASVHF
Method: FIGS. 3A-B. Effect of T6 on basal transcription driven by splice variants. PC-3 cells were transiently transfected with ARE-luciferase along with plasmids expressing ARv7 (FIG. 3A) or AR567 (FIG. 3B). Cells were maintained for 48 h either without (EtOH) or with (1 nM DHT) and in the presence of 100 nM of peptidomimetic or volume equivalent of vehicle (DMSO) control. Luciferase assay results are shown. Data is normalized to the basal level of expression with AR wt in PC3 cells.

ARv7 regulated genes = experiment: Q-PCR of ARv7 regulated genes; assay type: cell-based; settings: data not shown
Description: Finally, confirmation of the role of T6 in modulating ARv7 driven transcription was obtained by evaluation of the gene expression of ARv7 regulated genes.

- transcription driven by AR567 splice variant (AR567): decreases
Compound: CC(C)COc1cc(C(N)=O)ccc1NC(=O)c1ccc(NC(=O)c2ccc([N+](=O)[O-])c(OCCc3ccc4ccccc4c3)c2)c(OCC(C)C)c1 [T6]
- expression of a panel of ARv7 regulated genes (Q-PCR) (ARv7 regulated genes): able to abrogate
